Laboratory results published in patent publication US20230024528A1, “METHODS OF USE OF ANTI-TREM2 ANTIBODIES” (Alector LLC, priority 2019, published 2023).

System: human macrophages
Experiment: Human macrophage cell viability and survival following CSF1R inhibition with PLX3397, CellTiter-Glo
Assay type: cell-based
Conditions: PLX3397 30 nM alone, complete RPMI media
Protocol: To evaluate the ability of an anti-TREM2 antibody to sustain survival of human macrophages after CSF1R inhibition, the ability of AL2p-58 huIgG1 PSEG to enhance cell-viability and survival in the presence of CSF1R inhibitor PLX3397 was tested (DeNardo et al., Cancer Discov (2011) 1(1):54-67. 22039576t; Peng, et al., J. of Exp Canc Res (2019) 38(1):372. PMID: 31438996). Similar to CSF1 withdrawal experiments, human derived macrophages were plated onto 96-well plates on Day 6 and treated with IgG1, PLX3397 (30 nM), AL2p-58 huIgG1 PSEG (10 μg/mL) or a combination of PLX3397 and AL2p-58 huIgG1 PSEG on Day 7, all in complete RPMI media. Cell viability was quantified using the CellTiter-Glo luminescent viability assay (Promega) on each subsequent day.

FC(F)(F)c1ccc(CNc2ccc(Cc3c[nH]c4ncc(Cl)cc34)cn2)cn1 [PLX3397, reference compound]
cell viability of human macrophages treated with CSF1R inhibitor alone: reduced cell viability
